From PubChem BioAssay (NCI)
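1) Cells in 96-well plates. 2) Compound, 48 h, 5 concentrations. 3) Linear interpolation between surrounding doses. 4) Unreached endpoint = highest concentration. TGI: total growth inhibition.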

Key:
Experiment in all cases: NCI-60 cell line screen, 48 h
[1] = system: NCI-H460 lung
[2] = system: OVCAR-3 ovarian
[3] = system: SF-539 CNS
[4] = system: HT29 colon
[5] = system: MCF7 breast
[6] = system: PC-3 prostate
[7] = system: BT-549 breast
[8] = system: OVCAR-4 ovarian
[9] = system: SN12C renal
[10] = system: UACC-257 melanoma

| Structure (SMILES) | TGI [1] [µM] | TGI [2] [µM] | TGI [3] [µM] | TGI [4] [µM] | TGI [5] [µM] | TGI [6] [µM] | TGI [7] [µM] | TGI [8] [µM] | TGI [9] [µM] | TGI [10] [µM] |
| --- | --- | --- | --- | --- | --- | --- | --- | --- | --- | --- |
| O=NN1CCCS1(=O)=O | > 100 | > 100 | > 100 | > 100 | > 100 | > 100 | > 100 | > 100 | > 100 | > 100 |
| Cc1ccc(/C=C2/NC(=S)SC2=O)cc1 | 50.4 | > 100 | > 100 | > 100 | > 100 | > 100 | 54.2 | > 100 | > 100 | > 100 |
| CCOC(=O)Cc1csc(N=Nc2c(O)[nH]c3ccccc23)n1 | > 100 | > 100 | > 100 | > 100 | > 100 | > 100 | > 100 | > 100 | > 100 | > 100 |
| COc1cc(C)cc2c(-c3c(O)cc(O)c4c3C[C@H](C)N[C@H]4C)cc(-c3cc(-c4c(O)cc(O)c5c4C[C@H](C)N[C@H]5C)c4cc(C)cc(OC)c4c3O)c(O)c12 | > 100 | > 100 | > 100 | > 100 | > 100 | > 100 | > 100 | > 100 | > 100 | > 100 |
| COC(=O)/C=C1\C(=O)C=C2[C@@H]3C[C@H]4C[C@H](CC[C@@]4(C)N21)C3(C)NC(C)=O (stereo not given in full) | > 100 | 29 | 9.54 | 28.2 | 68.7 | 31.4 | 24.8 | 44 | 26.6 | 52.5 |
| COC1(OC)C=CC(=O)C=C1 | 19.7 | 12.4 | 11.8 | 12.1 | 8.42 | 13.9 | 14.2 | 16.7 | 30.8 | 8.48 |
| NC1c2c(Cl)sc(Cl)c2C(=O)C1O (stereo not given) | > 100 | > 100 | > 100 | 33.9 | 66 | > 100 | 47.6 | 50.4 | 29.2 | > 100 |
| O=[N+]([O-])c1ccc2nc(/C=C(\O)c3ccc(Cl)cc3)c(/C=C(\O)c3ccc(Cl)cc3)nc2c1 | > 100 | > 100 | > 100 | > 100 | > 100 | > 100 | > 100 | > 100 | > 100 | > 100 |
| C=CCc1ccccc1C1CC2(C(=O)OC)OC1C(C(=O)OC)=C2C(=O)OC (stereo not given) | > 10 | > 10 | > 10 | > 10 | > 10 | > 10 | > 10 | > 10 | > 10 | > 10 |
| COC(=O)c1cc(C)ccc1/C=C1\Cc2c(C)cc(C)cc2C1=O | > 100 | > 100 | 42.3 | > 100 | > 100 | > 100 | > 75.7 | > 100 | > 100 | > 30.1 |
| Nn1c(Sc2nc3ccccc3c(=O)n2N)nc2ccccc2c1=O | 51.7 | 40.3 | 6.24 | 14.3 | 27.4 | 28.4 | 6.38 | > 100 | 18.8 | 38.1 |
| CCN(CC)C1Oc2cc3c(cc2C(c2cc(OC)c(OC)c(OC)c2)C1C)OCO3 (stereo not given) | 22.5 | 5.79 | 1.43 | 9.95 | > 50 | > 57.4 | > 58.4 | > 100 | > 53.8 | > 100 |
| NC(=S)N/N=C1\CCCC1C(O)(C(F)(F)Cl)C(F)(F)Cl (stereo not given) | > 10 | > 10 | > 10 | > 10 | > 10 | > 10 | > 10 | > 10 | > 10 | > 10 |
| Cc1c(C#N)c(=N)oc2ccccc12 | > 100 | > 100 | > 100 | > 100 | > 100 | > 100 | > 100 | > 100 | > 100 | > 100 |
| COc1ccc(OC)c(C[P+](c2ccccc2)(c2ccccc2)c2ccccc2)c1 | > 100 | > 37.3 | 39.2 | 11.8 | > 40.7 | 8.56 | 29.1 | > 48.8 | > 100 | 14.4 |
| CC1CN=C(c2ccc(-c3nc(-c4ccc(C5=NCC(C)N5)cc4)nc(N(C)C)n3)cc2)N1 (stereo not given) | 11.1 | 4.74 | 2.2 | 7.33 | 4.71 | 4.42 | 13.7 | 3.67 | 3.87 | 8.76 |
| COc1cc2c(cc1OC)C(=O)/C(=C/c1ccc(O)cc1)CC2 | > 10 | > 10 | > 10 | > 10 | > 10 | > 10 | > 10 | > 10 | > 10 | > 10 |
| CCn1c(=O)c2c3ccc(OC(C)=O)cc3[nH]c2c2ccc(OC(C)=O)cc21 | > 100 | > 100 | > 100 | > 100 | > 100 | > 100 | > 100 | > 100 | > 100 | > 100 |
| CC(=Nc1cc(Cl)cc(Cl)c1)c1ccncc1 | > 100 | > 100 | > 100 | > 100 | > 100 | > 100 | > 100 | > 100 | > 100 | > 100 |
| O=C(O)COc1cc(-c2ccccc2)nc2ccccc12 | > 100 | > 100 | > 100 | > 100 | > 100 | > 100 | > 100 | > 100 | > 100 | > 100 |
| Nc1ccc2c(c1)NC(=O)[C@@H]1CCCN1C2=O | > 100 | > 100 | > 100 | > 100 | > 100 | > 100 | > 100 | > 100 | > 100 | > 100 |
